Laboratory results from patent publication US8765692B2, “Modified-galactosyl ceramides for staining and stimulating natural killer T cells” (The Scripps Research Institute, priority 2006, dated 2014).

Tests used:
[1] = Solubility in DMSO; assay type: physicochemical; conditions: for solubility: 20 °C, organic solvent or mixture; for solubility (in words): relative to KRN7000 or fully saturated compounds
Procedure: As with most glycolipids, solubility issues are central to handling the compounds. Compounds are usually solubilized in DMSO, and then diluted to working concentrations in aqueous solutions. […] In suitable embodiments, the compounds of the invention are at least about 10 mg/mL in DMSO under ambient conditions (approximately 20° C.). In more suitable embodiments, the compounds of the invention are at least about 20 mg/mL in DMSO at ambient temperature. In further suitable embodiments, the compounds of the invention are at least 80%, at least two-fold, or at least 4-fold relative to the solubility of KRN7000 in DMSO at ambient temperature.

[2] = test system: NKT cells (B6 mouse splenocytes); test: Cytokine release in vitro from mouse splenocytes (IL-4 and IFNγ ELISA); assay type: cell-based; conditions: for concentration at which cytokine responses plateau: 5×10^5 B6 splenocytes, IL-4 and IFNγ ELISA, FIG. 6
Procedure: To determine if PBS-57 stimulated cytokine release by NKT cells in vitro, 5×10^5 mouse splenocytes isolated from B6 mice were incubated in separate wells with 10^5, 10^4, 10^3, 100, 10 and 1 pg/mL of PBS-57 or KRN7000 in RPMI 1640 media supplemented with 10% FBS, 50 μM 2-mercaptoethanol, 2 mM glutamine and antibiotics. After 48 hours, IL-4 and IFNγ levels were measured by ELISA (BD Pharmingen).

[3] = test system: Vα14i NKT cells; test: Staining of Vα14i NKT cells with glycolipid-loaded mouse CD1d tetramers (flow cytometry); assay type: cell-based; conditions: summary statement, compared with KRN7000
Procedure: An typical means to isolate and quantify CD1 responsive NKT cells is through flow cytometry using fluorophore tagged CD1d tetramers loaded with sphingoglycolipids. To test for the ability of PBS-57 to facilitate CD1d tetramer staining, glycolipid-loaded CD1d tetramers were formed. Biotinylated mouse sCD1d molecules (in PBS) were mixed with PBS-57 or KRN7000 at a molar ratio of 1:3 (protein:lipid) and incubated overnight at room temperature. The following day, 80 μg of streptavidin-PE (Pharmagen) was added to 200 μg of the CD1-glycolipid mix and incubated at room temperature for 4 hours. Tetramers were stored at 4° C. until use.
Single cell suspensions of thymocytes and splenocytes were isolated from C57BL/6J mice (Jackson Laboratories, Bar Harbor, Me.) as known in the art. The TCR repertoire of the NKT cells was limited with an invariable Vα subunit (Vα14 in mice) and varied Vβ subunits. 10^6 cells were incubated with 200 μL staining media (2% BSA, 1% NaN3, 10 mM EDTA in PBS) with 2.4G2 (1:100; ATCC, Manassas, Va.) and Neutravidin (5 μg/200 μl; Molecular Probes, Eugene, Oreg.) for 20 minutes on ice. […] Cells were washed twice in staining media, fixed with 1% paraformaldehyde in PBS and analyzed by flow cytometry.

[4] = test system: NKT cell hybridomas; test: Binding of PBS-57 loaded CD1d tetramers to NKT cell hybridomas expressing different Vβ; assay type: cell-based; conditions: hybridomas with different Vβ TCR, 37° C. 4 hours, FIG. 4
Procedure: The TCR expressed on NKT cells are limited to a invariant Vα subunit, and a variable Vβ subunit that respond to glycolipid presentation by CD1d. To determine if PBS-57 loaded tetramers were Vβ subunit specific in their ability to bind, NKT cell hybridomas expressing different Vβ were tested for their ability to bind PBS-57 loaded CD1d tetramers.
For staining of NKT cell hybridomas, soluble CD1d (sCD1d) tetramers were loaded with PBS-57 or KRN7000 by the following procedure. Stock reagents of the following were prepared: sCD1d (1 mg/ml in phosphate buffer saline (PBS)); PBS-57 (1 mg/ml in DMSO); Tween 20 (0.5% in PBS); and streptavidin-APC (80 μg/mL in PBS). 10 μL sCD1d stock, 1 μL PBS-57 stock, and 10 μL Tween 20 stock were mixed, and 79 μL PBS was added to bring the volume up to 100 μL. […] To separate unbound glycolipid, the mixture was applied to a Microcon YM30 filter (Millipore) that has been previously wetted with PBS (400 μL). The loaded membrane was centrifuged until only ˜10 μL of solution remained. The volume was then increased to 100 μL by addition of PBS. The solution was agitated to aid in freeing the protein from the filter. The Microcon unit was inverted into a fresh Eppendorf tube and the contents were centrifuged into the tube. A 10 μL aliquot of the solution was removed and the streptavidin-APC solution (5 μL) was added. […]

[5] = test system: NKT cells; test: CD1d tetramer staining of NKT cells in human blood samples; assay type: cell-based; conditions: PBS-57 loaded mouse and human CD1d tetramers
Text: (§1) To test whether PBS-57 could facilitate NKT cell binding in blood samples of both human and non-human primates, mouse and human CD1d tetramers were loaded with PBS-57 as described in Example 2. A majority of the human blood samples contained sufficient NKT cells (>0.08% of CD3-positive cells) to observe staining (14 out of 17 samples), while some samples may have contained too few NKT cells to allow detection of staining (Lee et al., 2002).

[6] = test system: NKT cells; test: CD1d tetramer staining of NKT cells in chimpanzee blood samples; assay type: cell-based; conditions: PBS-57 loaded CD1d tetramers
Text: as §1

[7] = test system: NKT cells; test: CD1d tetramer staining of NKT cells in rhesus macaque blood samples; assay type: cell-based; conditions: rhesus macaques, 12 samples
Text: as §1

[8] = test system: NKT cells; test: CD1d tetramer staining of NKT cells in pigtail macaque blood samples; assay type: cell-based; conditions: pigtail macaques
Text: as §1

[9] = test system: NKT cells; test: CD1d tetramer staining of NKT cells in sooty mangabey blood samples; assay type: cell-based; conditions: sooty mangabeys
Text: as §1

[10] = test system: NKT cells; test: Cytokine release in vivo: serum INF-γ after intravenous injection; design: species or system mouse
Procedure: To examine if PBS-57 elicited an immune response in vivo, the ability of PBS-57 and KRN7000 to elicit an increase in cytokine levels in a mouse was assayed. 1 mg/ml stock solutions of PBS-57 and KRN7000 in DMSO were prepared. The PBS-57 and KRN7000 solutions were diluted with PBS to 1, 100, 10^4, and 10^6 pg/mL. 100 μL of each solution was injected intravenously into 6 week-old B6 mice. Serum samples were isolated from the mice at 24 hours, and the concentration of INF-γ was assayed by ELISA (BD Pharmingen).

SMILES: CCCCCCCCCCCCCCCCCCCCCCCCCC(=O)N[C@@H](CO[C@H]1O[C@H](CO)[C@H](O)[C@H](O)[C@H]1O)[C@H](O)[C@H](O)CCCCCCCCCCCCCC [KRN7000, reference compound]
- solubility [1]: < 5 mg/mL
- solubility (in words) [1]: relatively poor solubility in either aqueous or organic solvents
- concentration at which cytokine responses plateau ([2]; 48 hours): ~1000 pg/mL

SMILES: CCCCCCCCC=CCCCCCCCCCCCCCC(=O)N[C@@H](OC1OC(CNC(C)=O)C(O)C(O)C1O)C(O)[C@H](O)CCCCCCCCCCCCCC (stereo partly drawn) [PBS-57]
- solubility [1]: 20 mg/mL
- solubility ([1]; molar value printed in parentheses): 22.4 mM
- solubility (in words) [1]: relatively high solubility
- staining of mouse and human NKT cells (summary) [3]: as well as KRN7000
- effect of Vβ subunit variation on binding of loaded CD1d tetramers [4]: did not affect the binding
- blood samples with observable NKT cell staining [5]: 14 out of 17
- blood samples with significant NKT cell staining [6]: 6 out of 10
- share of blood samples with significant NKT cell staining [7]: one quarter
- NKT cell staining in blood samples [8]: No staining
- NKT cell staining in blood samples [9]: No staining
- concentration at which cytokine responses plateau ([2]; 48 hours): approximately 100 pg/mL
- Th1 and Th2 cytokine secretion ([2]; B6 splenocytes, 48 hours): able to induce both Th1 and Th2 cytokine secretion
- NKT cell stimulation in vitro relative to KRN7000 ([2]; summary statement, in vitro): stimulates NKT cells more effectively than KRN7000
- serum INF-γ concentration relative to KRN7000 ([10]; B6 mice, intravenous, 100 μL of 1 to 10^6 pg/mL, serum at 24 hours, FIG. 7): equal to or greater than KRN7000
- NKT cell stimulation in vivo relative to KRN7000 ([10]; summary statement, in vivo): stimulates NKT cells more effectively than KRN7000
